In patent US9505798B2, “Steroid compounds as RORyt modulators and uses thereof” (New York University, priority 2010, dated 2016):

Assays:
[1] = system: RORγ LBD mutants (L290, C318, A494); test: Random mutagenesis of RORγ LBD, digoxin resistance in S2 reporter; type: cell-based, mouse; conditions: mutations at L290, C318 and A494
[2] = system: gut (large intestine) Th17 cells; test: DSS-induced model relating to intestinal bowel diseases; type: in vivo, mouse; set-up: dose or concentration left out as unconfirmed; conditions: IP daily, day 7
Protocol: Th17 cells were induced by Dextran Sulfate Sodium (DSS) treatment, a chemical agent that causes intestinal epithelial injury, and thus, is often used to generate an animal model that mimics many aspects of intestinal bowel diseases. […] Gut associated mononuclear cells were collected and their cytokine expression was analyzed on day 7. Representative FACS plots (gated on CD4^+CD3^+TCRβ^+CD19^− cells) from each group are shown (left).
B6 wild-type mice received 2% DSS (Dextran Sulfate Sodium) ad libitum in drinking water for 7 days. […] Gut associated cells were collected and activated for cytokine straining on day 7. To isolate cells from the small intestinal lamina propria, Peyer's patches, fat and mesenterium were removed before opening the intestine longitudinally. The tissue was cut into 2 cm pieces and washed in calcium- and magnesium-free PBS (Gibco). The tissue was then washed for 10 minutes in cold 1 mM DTT (Sigma) in PBS then two 10 minute washes in 30 mM EDTA, 10 mM HEPES (Gibco) in PBS at 37° C. The tissue was washed with complete RPMI and digested for 1.5 hr at 37° C. in 5% CO2, humidified atmosphere, in complete RPMI containing 100 U ml-1 type VIII collagenase (Sigma) and 150 μg ml—1 DNaseI (Sigma). After digestion, cells were eluted from the tissue by shaking. Live cells were isolated using a Percoll (Pharmacia) gradient. […]

[3] = system: Th17 cell transfer-mediated EAE; test: Th17 cell transfer-mediated (passive) EAE; type: in vivo, mouse; conditions: daily from day 2, RAG-2-deficient mice
RORα = biological target: T1, RORα (Mus musculus, UniProt P51448); test: S2 cell RORα luciferase reporter; type: cell-based; conditions: 10 μM, FIG. 1c
T1 construct: mouse RORα (amino acids 142 to end); expressed in transfected cells
T1 sequence (P51448 142-523 limits assumed): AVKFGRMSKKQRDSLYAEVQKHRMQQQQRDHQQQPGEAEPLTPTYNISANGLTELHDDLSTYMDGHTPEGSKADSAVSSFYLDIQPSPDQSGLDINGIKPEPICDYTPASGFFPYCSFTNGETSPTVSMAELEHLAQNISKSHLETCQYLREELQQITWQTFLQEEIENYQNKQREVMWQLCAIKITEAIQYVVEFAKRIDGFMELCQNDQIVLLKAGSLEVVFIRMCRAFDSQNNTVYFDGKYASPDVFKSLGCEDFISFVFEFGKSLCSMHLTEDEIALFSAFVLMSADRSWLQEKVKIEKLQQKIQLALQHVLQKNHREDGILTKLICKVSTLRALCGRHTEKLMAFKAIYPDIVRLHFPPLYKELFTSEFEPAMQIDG
From the text: The Drosophila S2 cell line was originally purchased from Invitrogen and was maintained in Schneider's medium supplemented with 10% heat-inactivated bovine fetal calf serum and antibiotics (Invitrogen). Gal4 DNA binding domain (G4 DBD) corresponding to amino acids 1 through 147 of Gal4 protein was PCR amplified to make a fusion construct with mouse RORγt (amino acids 79 to the carboxyl terminal end) lacking its DNA binding domain. The resulting chimeric gene was subcloned into the copper inducible pMT/V5-His A vector (Invitrogen). In a similar manner, Gal4 fusion constructs were prepared with mouse RORα (amino acids 142 to end) or Drosophila DHR3 (amino acids 120 to end). Coding sequences for firefly luciferase (Promega) were PCR amplified and subcloned into pUAST vector containing Gal4 binding enhancer sequences. Renilla luciferase construct under the polIII promoter was obtained from Dr. Dasgupta's laboratory (NYU medical center). In order to generate stable cell lines, cells were co-transfected with pMT-G4 DBD-RORγt, pMT-G4 DBD-RORα, pMT-G4 DBD-DHR3, or pMT-G4 DBDVP16 and pHygro plasmids (Invitrogen) and screened for resistant colonies in the presence of hygromycin (0.3 mg/mL). […]

Q: With `C[C@H]1O[C@@H](O[C@H]2[C@@H](O)C[C@H](O[C@H]3[C@@H](O)C[C@H](O[C@H]4CC[C@@]5(C)[C@H](CC[C@@H]6[C@@H]5C[C@@H](O)[C@]5(C)[C@@H](C7=CC(=O)OC7)CC[C@]65O)C4)O[C@@H]3C)O[C@@H]2C)C[C@H](O)[C@@H]1O` [Digoxin] as the compound, how does the “sensitivity of mutant RORγ to inhibition” value [1] read?
A: The value was “much less sensitivity”.

Q: What about the “number of gut (large intestine) Th17 cells” value [2] of the same compound?
A: The value was “reduction”.

Q: And the “onset and severity of Th17 cell transfer-mediated EAE” value [3]?
A: The value was “delayed onset and reduced severity”.

Q: And the “effect on transcriptional activity of RORα” value (RORα)?
A: The value was “no effect”.
